Measured values as given in US20080009506A1, “Imidazole Compound” (priority 2004, published 2008).

System: rhythmic bladder contractions induced by substance P
Assay: Inhibitory effect on the rhythmic bladder contractions induced by substance P in anesthetized rats
Format: in vivo, Sprague-Dawley female rats
Settings: 0.25 mg/kg, intravenous, urethane-anesthetized rats, substance P 0.33 μg/kg/min infusion
Method: For the experiments, Sprague-Dawley female rats (9 to 12 weeks old) weighing between 200 to 300 g were used. After urethane anesthetization (subcutaneously administered with a dose of 1.2 g/kg), cannulae were placed in both right and left femoral veins. One intravenous catheter was used for administration of compounds, and the other was for the substance P (0.33 μg/kg/min) infusion. We also cannulated into ureter to pass urine. Polyethylene catheters were inserted into carotid artery for continuous monitoring of arterial blood pressure and heart rate. For continuous infusion, transurethral bladder catheter was inserted into the bladder through the urethra and tied in place by a ligature around the urethral orifice. One end of the catheter was attached to a pressure transducer in order to measure intravesical pressure. The other end of the catheter was used for infusion of saline into the bladder. After stabilization of blood pressure and heart rate and after the bladder was emptied, cystometry was performed by filling the bladder slowly with about 0.6 ml of saline. After about 10 minutes, intravenous infusion of substance P (0.33 μg/kg/min) was started for stabilization of the micturition reflex. Compounds were administered after stable rhythmic bladder contraction was obtained over 15 minutes. […]

Q: For NC(=O)c1ccc(-n2cc(C(F)(F)F)nc2-c2ccccc2)cc1 [Example 1 (Compound 4)], which “100% inhibition time: time during which the frequency of the rhythmic contraction had been completely inhibited” value is on record?
A: 10.08 min
